Where “and” joins values, the source holds several entries; their conditions need not be identical. Identical values can stand only once.
How the values were obtained:
[1] = tested on: Escherichia coli (E. coli - ATCC #10536); experiment: Automated assessment of efficacy in surfactant base (2.85% sodium cocoyl glycinate + 1.85% sodium lauroamphoacetate, pH 10), 15 seconds exposure; type: cell-based; details: for MBC (% w/v): in 2.85% sodium cocoyl glycinate + 1.85% sodium lauroamphoacetate solution at pH 10, E. coli, 15 seconds exposure; for Δ OD 450 nm = OD450 (time zero) − OD450 (time = 16 hours), Mean / Δ OD 590 nm OD590 (time = 16 hours) − OD590 (time zero), Mean / No. of replicates showing growth (out of 4): model surfactant solution pH 10, 15 s exposure; for Δ OD 450 nm = OD450 (time zero) − OD450 (time = 16 hours), Mean / Δ OD 590 nm OD590 (time = 16 hours) − OD590 (time zero), Mean: 4 replicates
Experimental: In these examples, the efficacy of combinations of actives were tested in a surfactant cleansing formulation comprising 2.85% sodium cocoyl glycinate and 1.85% sodium lauroamphoacetate.
This corresponds to a 50% in use dilution with water of a neat formulation containing 5.7% cocoyl glycinate and 3.7% sodium lauroamphoacetate during hand washing.
Solutions were prepared such that the concentrations of the surfactant components and test actives were 1.1× the final desired concentration in order to allow for dilution with the bacterial inoculum in the test. The solutions were manually adjusted to pH 10.0 by dropwise addition of sodium hydroxide solution, as measured with a pH meter at ambient temperature.
The efficacy of the combinations of the present invention was determined against Escherichia coli (E. coli—ATCC #10536), at a concentration of approximately 1×10^8 bacteria per mL.
Tests were conducted using standard microliter plate assays using an automated liquid handling system. 270 μl of the surfactant test solution was pipetted into each well of the microtitre plate and 30 μl of the bacterial suspension was then added. After exactly 15 seconds of bacterial exposure, a 30 μl volume of bacterial cells was withdrawn and transferred to 270 μl of D/E quench solution. After 5 minutes in the D/E quench, the optical density (OD) was measured for each plate in turn at two specific wavelengths (450 nm and 590 nm). These provide a dual check of antimicrobial activity, as the OD450 reading is specific for the yellow colour of D/E quench when bacterial growth is observed, whereas OD590 is specific for the initial purple colour of the D/E quench which is retained if no bacterial growth is observed. After the time zero OD measurements, plates were then incubated at 37° C. overnight (16 hours) before repeating the OD measurements. Delta CD values were calculated by subtracting […] the initial value at time zero. Bacterial growth is observed as an increase in OD450 and a decrease in ΔOD590. To identify antibacterially efficacious systems (those preventing appreciable bacterial growth after incubation), the following threshold changes in OD readings have been adopted: if (1), OD450 increases by less than 0.2 absorbance unit on incubation and (2), OD590 decreases by less than 0.35 unit on incubation. Conversely, where OD450 increases by more than 0.2 AU and OD590 decreases by more than 0.35 unit after incubation, corresponding to a colour shift from purple to yellow, the test system allows bacterial growth and is not deemed efficacious. Four replicate measurements in the same plate have been made for each test system. The number of replicate wells showing either bacterial growth or no growth is also readily assessed by eye by following the colour change.
Dose responses for individual components and binary mixtures of actives at a fixed concentration ratio were generated by sequential dilution of liquors with further surfactant solution to obtain a series of endpoints.
In some selected cases, the combinations were also tested at the weight ratio 1.1.

[2] = tested on: Escherichia coli (E. coli - ATCC #10536); experiment: Synergy test: high resolution MBC microtiter plate assay in phosphate buffer containing 35% dipropylene glycol, 15 seconds contact; type: cell-based; details: for QB: concentration of second component (B) acting alone which produced an end point (MBC of Compound B); Qb with Qa = 0 / QA: concentration of first component (A) acting alone which produced an end point (MBC of Compound A); Qa with Qb = 0: E. coli 10536, complete kill in 15 seconds, phosphate buffer with 35% DPG; for SI (Synergy Index = Qa/QA + Qb/QB): E. coli 10536, less than one = synergy, one = additivity, greater than one = antagonism
Excerpt: One measure of synergy is the industrially accepted method described by Kull, F. C.; Eisman, P. C.; Sylwestrowicz, M. D, and Mayer, R. L., in Applied Microbiology 9:538-541 (1961), using the ratio determined by the formula: Qa/QA+Qb/QB=Synergy Index (“SI”) wherein; QA=concentration of compound A (first component) in percent, acting alone, which produced an end point (MBC of Compound A), Qa=concentration of compound A in percent, in the mixture, which produced an end point. QB=concentration of compound B (second component) in percent, acting alone, which produced an end point (MBC of Compound B). Qb=concentration of compound B in percent, in the mixture, which produced an end point.
When the sum of Qa/QA and Qb/QB is greater than one, antagonism is indicated. […] The lower the SI, the greater is the synergy shown by that particular mixture. The minimum biocidal concentration (MBC) of a microbicide is the lowest concentration tested under a specific set of conditions that provides complete kill of the tested microorganisms.
Synergy tests were conducted using standard microliter plate assays with phosphate buffer containing 35% dipropylene glycol (DPG). In this method, a wide range of combinations of chemicals was tested by conducting high resolution. MBC assays of Component (A) in the presence of various concentrations of Component (B). High resolution MBCs were determined by adding varying amounts of microbicide to one column of a microliter plate and doing subsequent […] dilutions using an automated liquid handling system to obtain a series of closely spaced endpoints. The MBC plate was inoculated one column at a time with the test microorganism. An aliquot of the inoculated well was transferred at 15 seconds to a plate containing a neutralizing agent (EVE Neutralizing Broth), mixed and held for 5 minutes before being transferred to a growth plate containing trypticase soy broth (TSB). The TSB plate was incubated at 37° C. and read for the presence/absence of growth at 24 hours. The lowest level tested that provided complete kill (as evidenced by no growth in the microtitre plate) of the test organisms in 15 seconds is the minimum biocidal concentration (MBC).
The synergy of the combinations of the present invention was determined against a bacterium, Escherichia coli (E. coli—ATCC #10536), at a concentration of approximately 1×10^8 bacteria per mL. This microorganism is representative of natural contaminants in many consumer and industrial applications.

Row | Structure (SMILES) | MBC (% w/v) [1] | Δ OD 450 nm = OD450 (time zero) − OD450 (time = 16 hours), Mean ([1]; single active at 0.2% w/v) | Δ OD 590 nm OD590 (time = 16 hours) − OD590 (time zero), Mean ([1]; single active at 0.2% w/v) | SI (Synergy Index = Qa/QA + Qb/QB) [2] | QA: concentration of first component (A) acting alone which produced an end point (MBC of Compound A); Qa with Qb = 0 [2] | No. of replicates showing growth (out of 4) ([1]; single active at […] w/v) | Δ OD 590 nm OD590 (time = 16 hours) − OD590 (time zero), Mean ([1]; single active at […] w/v) | also measured
1 | C=CC(C)(O)CCC=C(C)C (racemic) [3,7-dimethylocta-1,6-dien-3-ol] | >0.5 % w/v | −0.53 | 0.60 | 1.0 | – | – | – | Δ OD 450 nm = OD450 (time zero) − OD450 (time = 16 hours), Mean ([1]; single active at 0.5% w/v): −0.30; Δ OD 590 nm OD590 (time = 16 hours) − OD590 (time zero), Mean ([1]; single active at 0.5% w/v): 0.50; QB: concentration of second component (B) acting alone which produced an end point (MBC of Compound B); Qb with Qa = 0 [2]: 0.5 weight %
2 | Oc1ccccc1C1CCCC1 [2-cyclopentylphenol] | >0.2 % w/v | – | – | 1.00 | 0.2 weight % and 0.6 weight % and 0.3 weight % | – | – | –
3 | Oc1ccccc1Cc1ccccc1 [2-hydroxydiphenylmethane] | >0.2 % w/v | −0.51 | 0.63 | 1.00 | 0.8 weight % and 1.0 weight % and 0.6 weight % | 4 | 0.64 | No. of replicates showing growth (out of 4) ([1]; single active at 0.1% w/v): 4; Δ OD 450 nm = OD450 (time zero) − OD450 (time = 16 hours), Mean ([1]; single active at 0.1% w/v): −0.51; Δ OD 590 nm OD590 (time = 16 hours) − OD590 (time zero), Mean ([1]; single active at 0.1% w/v): 0.62; No. of replicates showing growth (out of 4) ([1]; single active at 0.2% w/v): 4; Δ OD 450 nm = OD450 (time zero) − OD450 (time = 16 hours), Mean ([1]; single active at […] w/v): −0.49
4 | Cc1ccc(C(C)C)c(O)c1O [3-isopropyl-6-methylbenzene-1,2-diol] | – | – | – | 1.00 | 0.8 weight % and 1.0 weight % | – | – | –
5 | Cc1cc(O)c(C(C)C)cc1Cl [4-chloro-2-isopropyl-5-methylphenol, reference compound] | >0.2 % w/v | – | – | – | – | – | – | –
6 | Cc1cc(O)cc(C)c1Cl [4-chloro-3,5-dimethylphenol] | >0.2 % w/v | – | – | 1.00 | 0.6 weight % and 0.3 weight % | – | – | –
7 | Oc1ccc(C2CCCC2)cc1 [4-cyclopentylphenol] | >0.2 % w/v | – | – | 1.00 | 0.2 weight % | – | – | –
8 | Oc1ccc(Cc2ccccc2)cc1 [4-hydroxydiphenylmethane] | >0.2 % w/v | −0.52 | 0.61 | 1.00 | 0.6 weight % and 0.5 weight % | 4 | 0.54 | No. of replicates showing growth (out of 4) ([1]; single active at 0.1% w/v): 4; Δ OD 450 nm = OD450 (time zero) − OD450 (time = 16 hours), Mean ([1]; single active at 0.1% w/v): −0.58; Δ OD 590 nm OD590 (time = 16 hours) − OD590 (time zero), Mean ([1]; single active at 0.1% w/v): 0.52; No. of replicates showing growth (out of 4) ([1]; single active at 0.2% w/v): 4; Δ OD 450 nm = OD450 (time zero) − OD450 (time = 16 hours), Mean ([1]; single active at […] w/v): −0.55
9 | CC(C)(C)c1ccc(O)c(O)c1 [4-tert-butylbenzene-1,2-diol] | – | – | – | 1.00 | 0.8 weight % and 1.0 weight % | – | – | –
10 | Oc1cccc2c1CCCC2 [5,6,7,8-tetrahydronaphthalen-1-ol] | >0.2 % w/v | – | – | 1.00 | 0.6 weight % and 0.5 weight % | – | – | –
11 | Oc1ccc2c(c1)CCCC2 [5,6,7,8-tetrahydronaphthalen-2-ol] | >0.2 % w/v | – | – | 1.00 | 0.6 weight % and 0.3 weight % and 0.5 weight % | 4 | 0.30 | Δ OD 450 nm = OD450 (time zero) − OD450 (time = 16 hours), Mean ([1]; single active at […] w/v): −1.59
12 | CC(C)=CCC/C(C)=C/CO [(E)-3,7-dimethylocta-2,6-dien-1-ol] | >0.5 % w/v | – | – | – | – | 4 | – | No. of replicates showing growth (out of 4) ([1]; single active at 0.3% w/v): 4; Δ OD 450 nm = OD450 (time zero) − OD450 (time = 16 hours), Mean ([1]; single active at 0.3% w/v): −0.51; Δ OD 590 nm OD590 (time = 16 hours) − OD590 (time zero), Mean ([1]; single active at 0.3% w/v): 0.59; No. of replicates showing growth (out of 4) ([1]; single active at 0.5% w/v): 4; Δ OD 450 nm = OD450 (time zero) − OD450 (time = 16 hours), Mean ([1]; single active at 0.5% w/v): −0.45; Δ OD 590 nm OD590 (time = 16 hours) − OD590 (time zero), Mean ([1]; single active at 0.5% w/v): 0.62; QB: concentration of second component (B) acting alone which produced an end point (MBC of Compound B); Qb with Qa = 0 [2]: 0.3 weight % and 0.2 weight %
13 | CC(C)=CCC/C(C)=C\CO [cis-3,7-dimethyl-2,6-octadien-1-ol] | >0.5 % w/v | −0.53 | 0.60 | – | – | 4 | 0.61 | Δ OD 450 nm = OD450 (time zero) − OD450 (time = 16 hours), Mean ([1]; single active at 0.5% w/v): −0.14; Δ OD 590 nm OD590 (time = 16 hours) − OD590 (time zero), Mean ([1]; single active at 0.5% w/v): 0.40; QB: concentration of second component (B) acting alone which produced an end point (MBC of Compound B); Qb with Qa = 0 [2]: 0.5 weight % and 0.25 weight %
